Earlier results on 22 compounds are cited in patent US20050171374A1, “Preparation of levulinic acid esters from alpha-angelica lactone and olefins; use of ester compositions as fuel additives” (priority 2004, published 2005).

Where a name gives a salt, the structure may show the parent alone.

For data set [1] the following is noted: reference [1] DIPPR.
The conditions of data set [2]: for Lower Heating Value [1]: reference [1] DIPPR, cells marked [3] from DOE/EIA report; for Lower Heating Value [2]: reference [2] Walters, molar group contributions.
For data set [3] the following is noted: reference [1] DIPPR. The source holds these as a separate data set.

As to `CCCCCOC=O` [Amyl Formate Ester], the “Flash Point [1]” value in data set [1] was 26.85 °C. In addition, in data set [2], the “Lower Heating Value [1]” value was 12274 Btu/lb and the “Lower Heating Value [2]” value was 13905 Btu/lb. In addition, in data set [3], the “Vapor Press. (100° F.) [1]” value was 2.5 KPa.

As for `CCCCCOC(=O)CCC(C)=O` [Amyl Levulinate], the “Lower Heating Value [2]” value in data set [2] is 14909 Btu/lb.

With `CCO` [Ethanol, reference compound], the “Flash Point [1]” value in data set [1] is 12.85 °C. For the same compound, in data set [2], the “Lower Heating Value [1]” value is 11500[3] Btu/lb and the “Lower Heating Value [2]” value is given as 12477 Btu/lb. In addition, in data set [3], the “Vapor Press. (100° F.) [1]” value was 16 KPa.

Regarding `CCOC=O` [Ethyl Formate], in data set [1], the “Flash Point [1]” value was −20 °C. In data set [2], the “Lower Heating Value [1]” value is given as 8751 Btu/lb and the “Lower Heating Value [2]” value is reported as 10139 Btu/lb. Also, the “Vapor Press. (100° F.) [1]” value in data set [3] is given as 55 KPa.

As for `CCOC(=O)CCC(C)=O` [Ethyl Levulinate], the “Lower Heating Value [2]” value in data set [2] is listed as 11722 Btu/lb.

Consider `CC(=O)CCC(=O)OCCC(C)C` [Isoamyl Levulinate], for which, in data set [2], the “Lower Heating Value [2]” value is 13605 Btu/lb.

Consider `CC(C)COC=O` [Isobutyl Formate], for which the “Flash Point [1]” value in data set [1] was 3.85 °C. In addition, in data set [2], the “Lower Heating Value [1]” value is on record as 11377 Btu/lb and the “Lower Heating Value [2]” value is listed as 12797 Btu/lb. Also, the “Vapor Press. (100° F.) [1]” value in data set [3] was 10.2 KPa.

Consider `CC(=O)CCC(=O)OCC(C)C` [Isobutyl Levulinate], for which the “Lower Heating Value [2]” value in data set [2] is 13041 Btu/lb.

Turning to `CC(C)OC=O` [Isopropyl Formate], the “Flash Point [1]” value in data set [1] is −6 °C. Moreover, the “Lower Heating Value [2]” value in data set [2] is given as 12304 Btu/lb.

Take `CC(=O)CCC(=O)OC(C)C` [Isopropyl Levulinate]: the “Lower Heating Value [2]” value in data set [2] is given as 10969 Btu/lb.

For the compound `COC(C)(C)C` [MTBE, methyl tertiary-butyl ether, reference compound], the “Flash Point [1]” value in data set [1] was −28.15 °C. In data set [2], the “Lower Heating Value [1]” value is 15100[3] Btu/lb and the “Lower Heating Value [2]” value is listed as 16578 Btu/lb. In addition, in data set [3], the “Vapor Press. (100° F.) [1]” value was 55 KPa.

On to `CO` [Methanol, reference compound], for which the “Flash Point [1]” value in data set [1] was 10.85 °C. In addition, in data set [2], the “Lower Heating Value [1]” value is 8570 Btu/lb and the “Lower Heating Value [2]” value is listed as 8950 Btu/lb. The “Vapor Press. (100° F.) [1]” value in data set [3] is given as 32 KPa.

`COC=O` [Methyl Formate]: in data set [1], the “Flash Point [1]” value was −19.15 °C. In data set [2], the “Lower Heating Value [1]” value is 6393 Btu/lb and the “Lower Heating Value [2]” value is on record as 7711 Btu/lb. Besides, the “Vapor Press. (100° F.) [1]” value in data set [3] is recorded as 126.2 KPa.

`COC(=O)CCC(C)=O` [Methyl Levulinate]: in data set [2], the “Lower Heating Value [2]” value is reported as 10773 Btu/lb.

Take `CCCCOC=O` [N-Butyl Formate]: the “Flash Point [1]” value in data set [1] was 18 °C. Also, in data set [2], the “Lower Heating Value [1]” value is listed as 11415 Btu/lb and the “Lower Heating Value [2]” value was 15175 Btu/lb. The “Vapor Press. (100° F.) [1]” value in data set [3] is recorded as 7.4 KPa.

Turning to `CCCCOC(=O)CCC(C)=O` [N-Butyl Levulinate], the “Lower Heating Value [2]” value in data set [2] is 14451 Btu/lb.

With `CCCOC=O` [N-Propyl Formate], the “Flash Point [1]” value in data set [1] is −3.15 °C. Besides, in data set [2], the “Lower Heating Value [1]” value is 9964 Btu/lb and the “Lower Heating Value [2]” value was 11792 Btu/lb. The “Vapor Press. (100° F.) [1]” value in data set [3] is given as 19.9 KPa.

For the compound `CCCOC(=O)CCC(C)=O` [N-Propyl Levulinate], in data set [2], the “Lower Heating Value [2]” value is given as 13912 Btu/lb.

Consider `CCC(C)OC=O` (stereo not shown) [Sec-Butyl Formate], for which, in data set [1], the “Flash Point [1]” value was 0.85 °C. Further, the “Lower Heating Value [2]” value in data set [2] is on record as 10617 Btu/lb. Besides, the “Vapor Press. (100° F.) [1]” value in data set [3] is given as 12.1 KPa.

On to `CCC(C)OC(=O)CCC(C)=O` (stereo not shown) [Sec-Butyl Levulinate], for which the “Lower Heating Value [2]” value in data set [2] is 11748 Btu/lb.

Take `CC(C)(C)OC=O` [Tert-Butyl Formate]: the “Flash Point [1]” value in data set [1] is −9 °C. Besides, in data set [2], the “Lower Heating Value [1]” value is given as 11277 Btu/lb and the “Lower Heating Value [2]” value was 12873 Btu/lb. For the same compound, the “Vapor Press. (100° F.) [1]” value in data set [3] is on record as 19.8 KPa.

`CC(=O)CCC(=O)OC(C)(C)C` [Tert-Butyl Levulinate]: the “Lower Heating Value [2]” value in data set [2] is 12010 Btu/lb.
